Ten molecules from PubChem BioAssay (NCI) can be followed below.

Holding throughout (assay): NCI tumour cell line growth inhibition, 48 h
Assay [1] deals with NCI-H522 lung.
Assay [2] has as its system RPMI-8226 leukemia.
The subject of assay [3] is LOX IMVI melanoma.
Assay [4] relates to MALME-3M melanoma.
Assay [5] has as its system NCI/ADR-RES ovarian.
Assay [6] relates to UACC-62 melanoma.
Assay [7] relates to SK-MEL-28 melanoma.
Assay [8] relates to HOP-92 NSCLC.
Assay [9] has as its system HS 578T breast.
The test system of assay [10] is HOP-62 NSCLC.

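Test compounds were applied to cells in 96-well plates for 48 hours at 5 doses. GI50: concentration for 50% inhibition of growth. TGI: total growth inhibition.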

For `Oc1ccc(-c2nc3ccc(Cl)cc3s2)cc1`, the TGI turned out to be 31.7 µM in [1]; 47.3 µM in [2]; 45.9 µM in [3]; 36 µM in [4]; 57.1 µM in assay [5]; 31.2 µM in assay [6].
In the case of `NC(=S)N/N=C\c1nccc2ccccc12`, the TGI is 32.5 µM in assay [1]; 0.951 µM in assay [7]; 4.72 µM in assay [2]; 4.56 µM in assay [8]; 11.8 µM in [3]; greater than 23.1 µM in [4]. Besides, the results for the TGI in assay [9], in assay [5] and in [6] were greater than 100 µM, 1.13 µM and 0.538 µM, respectively.
In the case of `CC1=C(C)Cc2c(O)ccc(O)c2C1`, the TGI in assay [7] turned out to be 25 µM; in [10], 50.1 µM; in assay [2], 27.2 µM; in [8] it was 36.4 µM; in assay [3] it was 46.7 µM; in [4] it was 31.6 µM. In addition, the TGI in assay [9] is 33.6 µM; in assay [5] it was greater than 100 µM; in assay [6], 30.1 µM.
Take `COc1ccc(-c2cc3[nH]nc(N)c3c(=O)o2)cc1`: the TGI in assay [7], in [2], in [8], in assay [3] and in assay [4] was greater than 100 µM in each case.
With `CC(=O)C1CC[C@@H]2[C@H](CC[C@]3(C)[C@@H](O)CC[C@@H]23)[C@H]1C(=O)O` (stereo not given in full), the TGI in [1], in assay [7], in assay [10], in assay [2], in assay [8] and in assay [4] was greater than 100 µM in each case. Also, the TGI in [9], in assay [5] and in assay [6] was greater than 100 µM throughout.
Take `N/C(=N\N=C\c1ccc2c(c1)OCCO2)NO`: the TGI is 42.1 µM in assay [1]; greater than 100 µM in [7]; 93.2 µM in [10]; greater than 64.4 µM in assay [2]; 80.6 µM in [8]; greater than 72.7 µM in assay [3]. The TGI is greater than 55.1 µM in [5] and greater than 34.4 µM in assay [6].
On to `O=C1C(Cl)=C(Nc2ccc(S(=O)(=O)Nc3ccccn3)cc2)C(=O)c2ccccc21`, for which the TGI in assay [1] was found to be 13.7 µM; in assay [7], 42.9 µM; in [10], 29.9 µM; in [2] it was 15.4 µM; in assay [8], 15.4 µM; in assay [3], 4.59 µM. Besides, the TGI in [4] was 7.6 µM; in assay [9], 48 µM; in assay [5], greater than 40.9 µM; in assay [6], 11.8 µM.
Turning to `CC1(C)OCC=CCO1`, the TGI in [1], in [7], in [10], in assay [2], in assay [8] and in assay [3] was greater than 100 µM throughout. Further, the TGI in assay [4], in assay [9], in assay [5] and in [6] was greater than 100 µM throughout.
Take `COc1cc(C(O)(CC#N)c2cc3c(cc2Br)OCO3)cc(OC)c1OC` (stereo not given): the TGI in assay [7] is greater than 100 µM; in assay [10], 35.9 µM; in assay [2], greater than 100 µM; in assay [8], greater than 100 µM; in assay [3], greater than 100 µM; in assay [5] it was greater than 100 µM. Besides, the TGI in assay [6] is greater than 100 µM.
As to `COc1cc2c(cc1OCCCC(=O)Nc1ccc3ccc4cccc5ccc1c3c45)N=C[C@@H]1CCCN1C2=O`, the GI50 is less than 0.0133 µM in assay [1]; less than 0.01 µM in assay [7]; less than 0.01 µM in [10]; 0.042 µM in assay [2]; 0.147 µM in assay [8]; 0.0143 µM in assay [3]. The GI50 was less than 0.0167 µM in assay [9], 0.0543 µM in assay [5] and less than 0.01 µM in [6]. The TGI in assay [7] is less than 0.01 µM; in assay [10], 1.74 µM; in assay [2], 0.238 µM; in assay [8], 1.07 µM; in assay [3], greater than 100 µM; in [9] it was 0.064 µM. Also, the TGI was 0.262 µM in assay [5] and 0.0263 µM in assay [6].
